# Test results reported in ChEMBL document CHEMBL1932967, “Synthesis and biological evaluation of novel derivatives of gambogic acid as anti-hepatocellular carcinoma agents” (Bioorg Med Chem Lett, 2012).
# Active and inactive are the calls of the source. The rule behind the calls is not given here.
# Legend:
# [1] = Cytotoxicity against human Bel7404 cells after 72 hrs by MTT assay; format: functional, cell-based; conditions: BEL-7404, 72 h
# [2] = Cytotoxicity against human QGY7701 cells after 72 hrs by MTT assay; format: functional, cell-based; conditions: QGY7701, 72 h
# [3] = Aqueous solubility of the compound; format: physicochemical; conditions: water (aqueous)
# HepG2 = test: cells; conditions: Homo sapiens, HepG2, 72 h
# Description: Cytotoxicity against human HepG2 cells after 72 hrs by MTT assay
# Bel-7402 [4] = test: Cytotoxicity against human Bel7402 cells after 72 hrs by MTT assay; format: functional, cell-based; conditions: Bel-7402, 72 h
# SMMC-7721 = test: Cytotoxicity against human SMMC7721 cells after 72 hrs by MTT assay; format: functional, cell-based; conditions: SMMC-7721, 72 h
# Bel-7402 [5] = test: Ratio of Gambogic acid IC50 to compound IC50 for human Bel7402 cells; format: functional
# Bel-7402 [6] = test: Ratio of Taxol IC50 to compound IC50 for human Bel7402 cells; format: functional
# Bel-7402 [7] = test: Induction of apoptosis in human Bel7402 cells assessed as early apoptotic cells at 0.4 uM after 48 hrs using V-FITC and propidium iodide staining by flow cytometry (reference value: 1.4 %); format: functional
# Bel-7402 [8] = test: Cytotoxicity against human Bel7402 cells at 1.235 uM after 72 hrs by MTT assay; format: functional, cell-based
# Bel-7402 [9] = test: Induction of apoptosis in human Bel7402 cells assessed as viable cells at 0.025 uM after 48 hrs using V-FITC and propidium iodide staining by flow cytometry (reference value: 95.7 %); format: functional; conditions: Bel-7402, 48 h, read-out: Activity
# Bel-7402 [10] = test: Induction of apoptosis in human Bel7402 cells assessed as late apoptotic cells at 0.1 uM after 48 hrs using V-FITC and propidium iodide staining by flow cytometry (reference value: 2.2 %); format: functional
# Bel-7402 [11] = test: Induction of apoptosis in human Bel7402 cells assessed as viable cells at 0.1 uM after 48 hrs using V-FITC and propidium iodide staining by flow cytometry (reference value: 95.7 %); format: functional; conditions: Bel-7402, 48 h, read-out: Activity
# Bel-7402 [12] = test: Induction of apoptosis in human Bel7402 cells assessed as early apoptotic cells at 0.025 uM after 48 hrs using V-FITC and propidium iodide staining by flow cytometry (reference value: 1.4 %); format: functional
# Bel-7402 [13] = test: Induction of apoptosis in human Bel7402 cells after 48 hrs using V-FITC and propidium iodide staining by flow cytometry; format: functional, cell-based
# Bel-7402 [14] = test: Induction of apoptosis in human Bel7402 cells assessed as pre-necrotic cells at 0.4 uM after 48 hrs using V-FITC and propidium iodide staining by flow cytometry (reference value: 0.7 %); format: functional
# Bel-7402 [15] = test: Induction of apoptosis in human Bel7402 cells assessed as pre-necrotic cells at 0.1 uM after 48 hrs using V-FITC and propidium iodide staining by flow cytometry (reference value: 0.7 %); format: functional
# Bel-7402 [16] = test: Induction of apoptosis in human Bel7402 cells assessed as late apoptotic cells at 0.025 uM after 48 hrs using V-FITC and propidium iodide staining by flow cytometry (reference value: 2.2 %); format: functional
# Bel-7402 [17] = test: Induction of apoptosis in human Bel7402 cells assessed as early apoptotic cells at 0.1 uM after 48 hrs using V-FITC and propidium iodide staining by flow cytometry (reference value: 1.4 %); format: functional
# Bel-7402 [18] = test: Induction of apoptosis in human Bel7402 cells assessed as pre-necrotic cells at 0.025 uM after 48 hrs using V-FITC and propidium iodide staining by flow cytometry (reference value: 0.7 %); format: functional
# Bel-7402 [19] = test: Induction of apoptosis in human Bel7402 cells assessed as late apoptotic cells at 0.4 uM after 48 hrs using V-FITC and propidium iodide staining by flow cytometry (reference value: 2.2 %); format: functional
# Bel-7402 [20] = test: Induction of apoptosis in human Bel7402 cells assessed as viable cells at 0.4 uM after 48 hrs using V-FITC and propidium iodide staining by flow cytometry (reference value: 95.7 %); format: functional; conditions: Bel-7402, 48 h, read-out: Activity
# [21] = Cytotoxicity against human HL-7702 cells at 1.235 uM after 72 hrs by MTT assay; format: cell-based; conditions: l02, 72 h
SMILES,IC50 [1] [µM],IC50 [2] [nM],solubility [3] [µg/mL],IC50 (HepG2) [nM],IC50 (Bel-7402 [4]) [nM],IC50 (SMMC-7721) [µM],further results
CC(C)=CCC[C@]1(C)C=Cc2c(O)c3c(c(CC=C(C)C)c2O1)O[C@]12C(=C[C@@H]4C[C@H]1C(C)(C)O[C@@]2(C/C=C(/C)C(=O)OCCCN1CCN(CCO)CC1)C4=O)C3=O,8.08,960,1230,3250,3120,6.61,
CC(C)=CCC[C@]1(C)C=Cc2c(O)c3c(c(CC=C(C)C)c2O1)O[C@]12C(=C[C@@H]4C[C@H]1C(C)(C)O[C@@]2(C/C=C(/C)C(=O)OCCCN1CCNCC1)C4=O)C3=O,27.6,4380,1350,19100,18100,26.2,
CC(C)=CCC[C@]1(C)C=Cc2c(O)c3c(c(CC=C(C)C)c2O1)O[C@]12C(=C[C@@H]4C[C@H]1C(C)(C)O[C@@]2(C/C=C(/C)C(=O)OCCCN1CCCCC1)C4=O)C3=O,1.42,430,840,150,86,1.06,Ratio IC50 (Bel-7402 [5]): 8.7; Ratio IC50 (Bel-7402 [6]): 14.5
CC(C)=CCC[C@]1(C)C=Cc2c(O)c3c(c(CC=C(C)C)c2O1)O[C@]12C(=C[C@@H]4C[C@H]1C(C)(C)O[C@@]2(C/C=C(/C)C(=O)OCCN1CCN(CCO)CC1)C4=O)C3=O,10.2,1860,1260,9900,3360,8.57,
CC(=O)O[C@H]1C(=O)[C@@]2(C)[C@H]([C@H](OC(=O)c3ccccc3)[C@]3(O)C[C@H](OC(=O)[C@H](O)[C@@H](NC(=O)c4ccccc4)c4ccccc4)C(C)=C1C3(C)C)[C@]1(OC(C)=O)CO[C@@H]1C[C@@H]2O [PACLITAXEL],0.82,40,,50,1250,0.88,
CC(C)=CCC[C@]1(C)C=Cc2c(O)c3c(c(CC=C(C)C)c2O1)O[C@]12C(=C[C@@H]4C[C@H]1C(C)(C)O[C@@]2(C/C=C(/C)C(=O)OCCN1CCCCC1)C4=O)C3=O,7.23,700,870,3180,1720,6.52,
CC(C)=CCC[C@]1(C)C=Cc2c(O)c3c(c(CC=C(C)C)c2O1)O[C@]12C(=C[C@@H]4C[C@H]1C(C)(C)O[C@@]2(C/C=C(/C)C(=O)OCCCCN1CCN(CCO)CC1)C4=O)C3=O,9.65,2560,1210,1160,1100,3.52,
CC(C)=CCC[C@]1(C)C=Cc2c(O)c3c(c(CC=C(C)C)c2O1)O[C@]12C(=C[C@@H]4C[C@H]1C(C)(C)O[C@@]2(C/C=C(/C)C(=O)OCCCCN1CCCCC1)C4=O)C3=O,6.46,4360,780,5590,3140,4.53,
CC(C)=CCC[C@]1(C)C=Cc2c(O)c3c(c(CC=C(C)C)c2O1)O[C@]12C(=C[C@@H]4C[C@H]1C(C)(C)O[C@@]2(C/C=C(/C)C(=O)OCCN1CCOCC1)C4=O)C3=O,1.99,410,1230,940,590,1.59,
CC(C)=CCC[C@]1(C)C=Cc2c(O)c3c(c(CC=C(C)C)c2O1)O[C@]12C(=C[C@@H]4C[C@H]1C(C)(C)O[C@@]2(C/C=C(/C)C(=O)OCCCN1CCOCC1)C4=O)C3=O,1.25,120,1210,67,45,0.73,Activity (Bel-7402 [7]): 44.9%; Activity (Bel-7402 [8]): Active; viability at 0.025 µM (Bel-7402 [9]): 87.8%; Ratio IC50 (Bel-7402 [5]): 16.7; Ratio IC50 (Bel-7402 [6]): 27.8; Activity (Bel-7402 [10]): 4.6%; viability at 0.1 µM (Bel-7402 [11]): 72.2%; Activity (Bel-7402 [12]): 3%; Activity (Bel-7402 [13]): Dose-dependent effect; Activity (Bel-7402 [14]): 0.5%; Activity (Bel-7402 [15]): 0.4%; Activity (Bel-7402 [16]): 7.8%; Activity (Bel-7402 [17]): 22.8%; Activity (Bel-7402 [18]): 1.4%; Activity (Bel-7402 [19]): 5%; viability at 0.4 µM (Bel-7402 [20]): 49.6%; Activity [21]: Toxic
CC(C)=CCC[C@]1(C)C=Cc2c(O)c3c(c(CC=C(C)C)c2O1)O[C@]12C(=C[C@@H]4C[C@H]1C(C)(C)O[C@@]2(C/C=C(/C)C(=O)OCCN1CCNCC1)C4=O)C3=O,31.1,5430,1360,20100,19700,28.4,
CC(C)=CCC[C@]1(C)C=Cc2c(O)c3c(c(CC=C(C)C)c2O1)O[C@]12C(=C[C@@H]4C[C@H]1C(C)(C)O[C@@]2(C/C=C(/C)C(=O)OCCCCN1CCNCC1)C4=O)C3=O,28.6,4120,1320,24100,16700,23.5,
CC(C)=CCC[C@]1(C)C=Cc2c(O)c3c(c(CC=C(C)C)c2O1)O[C@]12C(=C[C@@H]4C[C@H]1C(C)(C)O[C@@]2(C/C=C(/C)C(=O)O)C4=O)C3=O [GAMBOGIC ACID],4.7,240,13,1170,750,1.13,
CC(C)=CCC[C@]1(C)C=Cc2c(O)c3c(c(CC=C(C)C)c2O1)O[C@]12C(=C[C@@H]4C[C@H]1C(C)(C)O[C@@]2(C/C=C(/C)C(=O)OCCCCN1CCOCC1)C4=O)C3=O,2.11,530,1170,1510,2130,1.54,
